In patent publication US20220402950A1, “SUBSTITUTED BENZIMIDAZOLES AS PAD4 INHIBITORS” (BRISTOL-MYERS SQUIBB COMPANY, priority 2018, published 2022):

Molecular target: human PAD4 (hPAD4) (Homo sapiens, UniProt Q9UM07)
Experiment: RFMS Human PAD4 Functional Assay
Format: biochemical
Conditions: hPAD4 RFMS IC50, human PAD4, rapid-fire mass spectrum (RFMS) assay; 5 nM hPAD4, 250 μM BAEE
Summary of the method: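 RapidFire ESI-MS quantification, normalised to a modified-citrulline internal standard, after phenyl glyoxal (final 4 mM) derivatisation of the TCA-quenched reaction. The enzyme (10 nM) sat 30 min with compound (up to 50 μM final) before 500 μM BAEE (as added) started a 90 min, 37 °C reaction. Buffer: HEPES pH 7.5, 50 μM calcium, 5 μM TPEN.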

Chain of human PAD4 (hPAD4) (Q9UM07 whole entry): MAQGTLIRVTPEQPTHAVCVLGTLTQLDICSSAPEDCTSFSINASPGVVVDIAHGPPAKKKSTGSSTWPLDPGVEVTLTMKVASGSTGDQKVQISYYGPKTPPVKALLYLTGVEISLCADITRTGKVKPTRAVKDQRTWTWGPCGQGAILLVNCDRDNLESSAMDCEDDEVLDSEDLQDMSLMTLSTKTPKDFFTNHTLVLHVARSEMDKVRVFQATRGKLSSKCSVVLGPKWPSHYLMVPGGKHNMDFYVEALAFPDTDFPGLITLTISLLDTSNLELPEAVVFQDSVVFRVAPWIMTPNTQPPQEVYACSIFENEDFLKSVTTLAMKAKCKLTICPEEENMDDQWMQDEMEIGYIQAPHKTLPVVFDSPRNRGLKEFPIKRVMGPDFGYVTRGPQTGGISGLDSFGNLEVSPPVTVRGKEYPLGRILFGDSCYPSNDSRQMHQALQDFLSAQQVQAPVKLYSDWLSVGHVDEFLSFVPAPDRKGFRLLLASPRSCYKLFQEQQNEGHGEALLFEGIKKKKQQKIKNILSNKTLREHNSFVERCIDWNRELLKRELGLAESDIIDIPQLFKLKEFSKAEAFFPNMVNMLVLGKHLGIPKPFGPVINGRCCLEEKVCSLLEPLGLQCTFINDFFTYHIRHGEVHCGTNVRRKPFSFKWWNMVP

Row | Compound | IC50 [nM]
1 | COc1cc(C(=O)N2C[C@H]3CC[C@@H]2[C@@H]3N)cc2nc(-c3cc4cccc(C5CCN(C(=O)COc6ccccc6)CC5)c4n3CC3CC3)n(C)c12 [Example 235, 1-(4-(2-(5-((1R,4R,7R)-7-amino-2-azabicyclo[2.2.1]heptane-2-carbonyl)-7-methoxy-1-methyl-1H-benzo[d]imidazol-2-yl)-1-(cyclopropylmethyl)-1H-indol-7-yl)piperidin-1-yl)-2-phenoxyethan-1-one] | 58
2 | COCCC(=O)N1CCC(c2cccc3cc(-c4nc5cc(C(=O)N6C[C@H]7CC[C@@H]6[C@@H]7N)cc(OC)c5n4C)n(CC4CC4)c23)CC1 [Example 236, 1-(4-(2-(5-((1R,4R,7R)-7-amino-2-azabicyclo[2.2.1]heptane-2-carbonyl)-7-methoxy-1-methyl-1H-benzo[d]imidazol-2-yl)-1-(cyclopropylmethyl)-1H-indol-7-yl)piperidin-1-yl)-3-methoxypropan-1-one] | 57
3 | COCCCC(=O)N1CCC(c2cccc3cc(-c4nc5cc(C(=O)N6C[C@H]7CC[C@@H]6[C@@H]7N)cc(OC)c5n4C)n(CC4CC4)c23)CC1 [Example 237, 1-(4-(2-(5-((1R,4R,7R)-7-amino-2-azabicyclo[2.2.1]heptane-2-carbonyl)-7-methoxy-1-methyl-1H-benzo[d]imidazol-2-yl)-1-(cyclopropylmethyl)-1H-indol-7-yl)piperidin-1-yl)-4-methoxybutan-1-one] | 18
4 | COc1cc(C(=O)N2C[C@H]3CC[C@@H]2[C@@H]3N)cc2nc(-c3cc4cccc(C5CCN(C(=O)C(C)OC)CC5)c4n3CC3CC3)n(C)c12 (stereo partly drawn) [Example 238, 1-(4-(2-(5-((1R,4R,7R)-7-amino-2-azabicyclo[2.2.1]heptane-2-carbonyl)-7-methoxy-1-methyl-1H-benzo[d]imidazol-2-yl)-1-(cyclopropylmethyl)-1H-indol-7-yl)piperidin-1-yl)-2-methoxypropan-1-one] | 104
5 | COc1cc(C(=O)N2C[C@H]3CC[C@@H]2[C@@H]3N)cc2nc(-c3cc4cccc(C5CCN(C(=O)COC(C)C)CC5)c4n3CC3CC3)n(C)c12 [Example 239, 1-(4-(2-(5-((1R,4R,7R)-7-amino-2-azabicyclo[2.2.1]heptane-2-carbonyl)-7-methoxy-1-methyl-1H-benzo[d]imidazol-2-yl)-1-(cyclopropylmethyl)-1H-indol-7-yl)piperidin-1-yl)-2-isopropoxyethan-1-one] | 119
6 | COc1cc(C(=O)N2C[C@H]3CC[C@@H]2[C@@H]3N)cc2nc(-c3cc4cccc(C5CCN(C(=O)CO)CC5)c4n3CC3CC3)n(C)c12 [Example 240, 1-(4-(2-(5-((1R,4R,7R)-7-amino-2-azabicyclo[2.2.1]heptane-2-carbonyl)-7-methoxy-1-methyl-1H-benzo[d]imidazol-2-yl)-1-(cyclopropylmethyl)-1H-indol-7-yl)piperidin-1-yl)-2-hydroxyethan-1-one] | 15
7 | COc1cc(C(=O)N2C[C@H]3CC[C@@H]2[C@@H]3N)cc2nc(-c3cc4cccc(C5CCN(C(=O)Nc6ccc(F)cc6)CC5)c4n3CC3CC3)n(C)c12 [Example 241, 4-(2-(5-((1R,4R,7R)-7-amino-2-azabicyclo[2.2.1]heptane-2-carbonyl)-7-methoxy-1-methyl-1H-benzo[d]imidazol-2-yl)-1-(cyclopropylmethyl)-1H-indol-7-yl)-N-(4-fluorophenyl)piperidine-1-carboxamide] | 28
8 | COc1cc(C(=O)N2C[C@H]3CC[C@@H]2[C@@H]3N)cc2nc(-c3cc4cccc(C5CCN(C(=O)Nc6cccc(F)c6)CC5)c4n3CC3CC3)n(C)c12 [Example 242, 4-(2-(5-((1R,4R,7R)-7-amino-2-azabicyclo[2.2.1]heptane-2-carbonyl)-7-methoxy-1-methyl-1H-benzo[d]imidazol-2-yl)-1-(cyclopropylmethyl)-1H-indol-7-yl)-N-(3-fluorophenyl)piperidine-1-carboxamide] | 30
9 | COc1cc(C(=O)N2C[C@H]3CC[C@@H]2[C@@H]3N)cc2nc(-c3cc4cccc(C5CCN(C(=O)Nc6ccncc6)CC5)c4n3CC3CC3)n(C)c12 [Example 245, 4-(2-(5-((1R,4R,7R)-7-amino-2-azabicyclo[2.2.1]heptane-2-carbonyl)-7-methoxy-1-methyl-1H-benzo[d]imidazol-2-yl)-1-(cyclopropylmethyl)-1H-indol-7-yl)-N-(pyridin-4-yl)piperidine-1-carboxamide] | 13
10 | COc1cccc(NC(=O)N2CCC(c3cccc4cc(-c5nc6cc(C(=O)N7C[C@H]8CC[C@@H]7[C@@H]8N)cc(OC)c6n5C)n(CC5CC5)c34)CC2)c1 [Example 248, 4-(2-(5-((1R,4R,7R)-7-amino-2-azabicyclo[2.2.1]heptane-2-carbonyl)-7-methoxy-1-methyl-1H-benzo[d]imidazol-2-yl)-1-(cyclopropylmethyl)-1H-indol-7-yl)-N-(3-methoxyphenyl)piperi-dine-1-carboxamide] | 20

Now those with a lower IC50, led by results:

Row | IC50 [nM] | Compound
11 | 8 | COc1cc(C(=O)N2C[C@H]3CC[C@@H]2[C@@H]3N)cc2nc(-c3cc4cccc(C5CCN(C(=O)Nc6ccccc6F)CC5)c4n3CC3CC3)n(C)c12 [Example 243, 4-(2-(5-((1R,4R,7R)-7-amino-2-azabicyclo[2.2.1]heptane-2-carbonyl)-7-methoxy-1-methyl-1H-benzo[d]imidazol-2-yl)-1-(cyclopropylmethyl)-1H-indol-7-yl)-N-(2-fluorophenyl)piperidine-1-carboxamide]
12 | 6 | COc1ccc(NC(=O)N2CCC(c3cccc4cc(-c5nc6cc(C(=O)N7C[C@H]8CC[C@@H]7[C@@H]8N)cc(OC)c6n5C)n(CC5CC5)c34)CC2)cc1 [Example 246, 4-(2-(5-((1R,4R,7R)-7-amino-2-azabicyclo[2.2.1]heptane-2-carbonyl)-7-methoxy-1-methyl-1H-benzo[d]imidazol-2-yl)-1-(cyclopropylmethyl)-1H-indol-7-yl)-N-(4-methoxyphenyl)piperi-dine-1-carboxamide]
13 | 9 | COc1ccccc1NC(=O)N1CCC(c2cccc3cc(-c4nc5cc(C(=O)N6C[C@H]7CC[C@@H]6[C@@H]7N)cc(OC)c5n4C)n(CC4CC4)c23)CC1 [Example 247, 4-(2-(5-((1R,4R,7R)-7-amino-2-azabicyclo[2.2.1]heptane-2-carbonyl)-7-methoxy-1-methyl-1H-benzo[d]imidazol-2-yl)-1-(cyclopropylmethyl)-1H-indol-7-yl)-N-(2-methoxyphenyl)piperi-dine-1-carboxamide]
14 | 8 | COc1cc(C(=O)N2C[C@H]3CC[C@@H]2[C@@H]3N)cc2nc(-c3cc4cccc(C5CCN(C(=O)NC6CC6)CC5)c4n3CC3CC3)n(C)c12 [Example 249, 4-(2-(5-((1R,4R,7R)-7-amino-2-azabicyclo[2.2.1]heptane-2-carbonyl)-7-methoxy-1-methyl-1H-benzo[d]imidazol-2-yl)-1-(cyclopropylmethyl)-1H-indol-7-yl)-N-cyclopropylpiperidine-1-carboxmaide]
15 | 8 | CCNC(=O)N1CCC(c2cccc3cc(-c4nc5cc(C(=O)N6C[C@H]7CC[C@@H]6[C@@H]7N)cc(OC)c5n4C)n(CC4CC4)c23)CC1 [Example 250, 4-(2-(5-((1R,4R,7R)-7-amino-2-azabicyclo[2.2.1]heptane-2-carbonyl)-7-methoxy-1-methyl-1H-benzo[d]imidazol-2-yl)-1-(cyclopropylmethyl)-1H-indol-7-yl)-N-ethylpiperidine-1-carboxamide]
